Consider twelve molecules from ChEMBL document CHEMBL3137667, “[Drug-induced liver injury; fourteenth updated edition of the bibliographic database of liver injuries and related drugs]” (Gastroenterol Clin Biol, 2004).

Data set [1] can be described thus: Highest frequency of moderate liver toxicity observed during clinical trials, expressed as a percentage. [column '% BIOL' in source]. To be noted: human.
Data set [2] can be described thus: Highest frequency of acute liver toxicity observed during clinical trials, expressed as a percentage. [column '% AIGUE' in source]. As to conditions: human.
The conditions of data set [3]: human, serum.
For data set [4] the following is noted: human, serum. This is another data set of the same source.
The conditions of data set [5]: human.
For data set [6] the following is noted: human. The source holds these as a separate data set.
For data set [7] the following is noted: human. The source holds these as a separate data set.
For data set [8] the following is noted: human, serum, 4383 h.
For data set [9] the following is noted: human. This is another data set of the same source.
The conditions of data set [10]: human. This is another data set of the same source.
The conditions of data set [11]: human. The source holds these as a separate data set.
The conditions of data set [12]: human. This is another data set of the same source.
For data set [13] the following is noted: human. This is another data set of the same source.
For data set [14] the following is noted: human. This is another data set of the same source.
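Wherever Hepatotoxicity (association with vascular disease) is given: count of indexed literature references reporting vascular liver injury in humans, e.g. peliosis hepatitis, hepatic veno-occlusive disease or Budd-Chiari syndrome.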
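Wherever Hepatotoxicity (benign tumour) is given: value is a count of indexed literature references citing a benign tumour confirmed by histopathology.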
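Wherever Hepatotoxicity (choleostasis) is given: human cholestatic liver injury, shown by histopathology or by peak ALT or AST elevation over alkaline phosphatase ratio below 2, value counts indexed literature reports.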
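Wherever Hepatotoxicity (chronic liver disease) is given: chronic liver injury confirmed by histopathology or persistently raised serum aminotransferase activity beyond 6 months, value given as the count of indexed literature references.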
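Wherever Hepatotoxicity (cirrhosis) is given: value is a count of indexed literature references reporting cirrhosis confirmed by histopathology.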
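Wherever Hepatotoxicity (cytolytic) is given: human cytolytic liver injury, shown by histopathology or by a ratio above 5 of peak ALT or AST elevation to alkaline phosphatase elevation, value counts indexed references.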
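Wherever Hepatotoxicity (granulomatous hepatitis) is given: value is a count of indexed literature references reporting granulomatous liver disease confirmed by histopathology.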
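Wherever Hepatotoxicity (malignant tumour) is given: malignant tumour confirmed by histopathology, value gives the count of indexed literature references reporting it.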
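Wherever Hepatotoxicity (severe hepatitis) is given: human clinical data: severe hepatitis, meaning potentially life-threatening liver failure or clinically observed cases, the value counts how many indexed literature references report it.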
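Wherever Hepatotoxicity (steatosis) is given: steatosis confirmed by histopathology, value is the count of indexed references.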

Consider `CCN1C(=O)NC(c2ccccc2)C1=O` (stereo not drawn) [ETHOTOIN], for which the “Hepatotoxicity (moderate)” value is reported as 2% in data set [1] and 1 in [3]. Also, the “Hepatotoxicity (acute)” value was found to be 0% in [2] and 0 in data set [4]. Also, the “Hepatotoxicity (cytolytic)” value in data set [5] was 0. For the same molecule, the “Hepatotoxicity (choleostasis)” value in data set [6] was found to be 0. The “Hepatotoxicity (severe hepatitis)” value in [7] turned out to be 0. Besides, in [8], the “Hepatotoxicity (chronic liver disease)” value came out at 0. In addition, the “Hepatotoxicity (cirrhosis)” value in [9] is 0. The “Hepatotoxicity (granulomatous hepatitis)” value in data set [10] is 0. Also, the “Hepatotoxicity (association with vascular disease)” value in [11] turned out to be 0. Besides, the “Hepatotoxicity (steatosis)” value in [12] is listed as 0. Further, the “Hepatotoxicity (malignant tumour)” value in data set [13] was 0. Further, in [14], the “Hepatotoxicity (benign tumour)” value is on record as 0.

For the molecule `CC(O)(P(=O)(O)O)P(=O)(O)O` [ETIDRONIC ACID], the “Hepatotoxicity (moderate)” value in data set [1] was determined as 8.7%; in data set [3], 1. Also, the “Hepatotoxicity (acute)” value in [2] is recorded as 0%; in data set [4] it was 0. For the same molecule, the “Hepatotoxicity (cytolytic)” value in [5] is 0. The “Hepatotoxicity (choleostasis)” value in [6] worked out at 0. The “Hepatotoxicity (severe hepatitis)” value in data set [7] came out at 0. Also, the “Hepatotoxicity (chronic liver disease)” value in data set [8] was 0. The “Hepatotoxicity (cirrhosis)” value in data set [9] came to 0. In data set [10], the “Hepatotoxicity (granulomatous hepatitis)” value turned out to be 0. In [11], the “Hepatotoxicity (association with vascular disease)” value was found to be 0. In [12], the “Hepatotoxicity (steatosis)” value is given as 0. Moreover, in data set [13], the “Hepatotoxicity (malignant tumour)” value stood at 0. Moreover, in data set [14], the “Hepatotoxicity (benign tumour)” value was 0.

Regarding `CC(C)(Oc1ccc(Cl)cc1)C(=O)OCCOC(=O)c1cccnc1` [ETOFIBRATE], the “Hepatotoxicity (moderate)” value in [1] worked out at 0%; in data set [3], 1. The “Hepatotoxicity (acute)” value in [2] is on record as 0%; in [4] it was 0. In data set [5], the “Hepatotoxicity (cytolytic)” value was 0. Moreover, the “Hepatotoxicity (choleostasis)” value in data set [6] stood at 0. For the same molecule, the “Hepatotoxicity (severe hepatitis)” value in data set [7] worked out at 0. For the same molecule, in data set [8], the “Hepatotoxicity (chronic liver disease)” value is on record as 0. For the same molecule, in data set [9], the “Hepatotoxicity (cirrhosis)” value was 0. Besides, the “Hepatotoxicity (granulomatous hepatitis)” value in [10] was determined as 0. Moreover, the “Hepatotoxicity (association with vascular disease)” value in data set [11] stood at 0. Also, the “Hepatotoxicity (steatosis)” value in [12] turned out to be 0. The “Hepatotoxicity (malignant tumour)” value in data set [13] is recorded as 0. Moreover, in data set [14], the “Hepatotoxicity (benign tumour)” value is given as 0.

With `COc1ccc(CCN(C)CCCOc2ccc(S(=O)(=O)c3c(C(C)C)cn4ccccc34)cc2)cc1OC` [FANTOFARONE], the “Hepatotoxicity (moderate)” value in data set [1] is on record as 2.7%; in [3], 1. The “Hepatotoxicity (acute)” value in data set [2] was determined as 0%; in data set [4], 0. Besides, the “Hepatotoxicity (cytolytic)” value in data set [5] was 0. In addition, in data set [6], the “Hepatotoxicity (choleostasis)” value is recorded as 0. Moreover, the “Hepatotoxicity (severe hepatitis)” value in data set [7] is on record as 0. Moreover, the “Hepatotoxicity (chronic liver disease)” value in data set [8] stood at 0. In addition, the “Hepatotoxicity (cirrhosis)” value in data set [9] is listed as 0. For the same molecule, the “Hepatotoxicity (granulomatous hepatitis)” value in data set [10] is given as 0. Moreover, the “Hepatotoxicity (association with vascular disease)” value in data set [11] turned out to be 0. For the same molecule, in [12], the “Hepatotoxicity (steatosis)” value was 0. Moreover, the “Hepatotoxicity (malignant tumour)” value in data set [13] is listed as 0. Moreover, in data set [14], the “Hepatotoxicity (benign tumour)” value is reported as 0.

Consider `C[C@@H](O)[C@H]1C(=O)N2C(C(=O)O)=C([C@H]3CCCO3)S[C@H]12` [FAROPENEM], for which the “Hepatotoxicity (moderate)” value in data set [1] came out at 20%; in data set [3], 39. The “Hepatotoxicity (acute)” value is recorded as 0% in data set [2] and 0 in data set [4]. Besides, the “Hepatotoxicity (cytolytic)” value in data set [5] is given as 0. The “Hepatotoxicity (choleostasis)” value in [6] is 0. The “Hepatotoxicity (severe hepatitis)” value in data set [7] is 0. Also, the “Hepatotoxicity (chronic liver disease)” value in [8] was 0. In addition, in data set [9], the “Hepatotoxicity (cirrhosis)” value is 0. Also, in [10], the “Hepatotoxicity (granulomatous hepatitis)” value is given as 0. In addition, the “Hepatotoxicity (association with vascular disease)” value in data set [11] is listed as 0. The “Hepatotoxicity (steatosis)” value in data set [12] was found to be 0. For the same molecule, in data set [13], the “Hepatotoxicity (malignant tumour)” value is 0. Besides, the “Hepatotoxicity (benign tumour)” value in [14] is on record as 0.

As for `Nc1ncn([C@@H]2O[C@H](CO)[C@@H](O)[C@@H]2O)c(=O)n1` [FAZARABINE], the “Hepatotoxicity (moderate)” value in [1] (Liver) worked out at 46.4%; in [3] it was 1. In addition, the “Hepatotoxicity (acute)” value in data set [2] (Liver) came out at 0%; in data set [4] it was 0. The “Hepatotoxicity (cytolytic)” value in [5] (Liver) is listed as 0. Moreover, the “Hepatotoxicity (choleostasis)” value in data set [6] (Liver) stood at 0. Besides, the “Hepatotoxicity (severe hepatitis)” value in data set [7] (Liver) was found to be 0. For the same molecule, in data set [8], the “Hepatotoxicity (chronic liver disease)” value was 0. The “Hepatotoxicity (cirrhosis)” value in [9] worked out at 0. Also, the “Hepatotoxicity (granulomatous hepatitis)” value in [10] (Liver) was 0. For the same molecule, the “Hepatotoxicity (association with vascular disease)” value in data set [11] came to 0. Moreover, the “Hepatotoxicity (steatosis)” value in data set [12] is given as 0. In addition, the “Hepatotoxicity (malignant tumour)” value in data set [13] came out at 0. The “Hepatotoxicity (benign tumour)” value in [14] is recorded as 0.

For `CCOC(=O)C1=C(C)NC(C)=C(C(=O)OC)C1c1cccc(Cl)c1Cl` (stereo not drawn) [FELODIPINE], the “Hepatotoxicity (moderate)” value in [1] (Liver) stood at 20%; in [3], 3. In addition, the “Hepatotoxicity (acute)” value turned out to be 0% in data set [2] (Liver) and 0 in data set [4]. For the same molecule, the “Hepatotoxicity (cytolytic)” value in data set [5] was determined as 0. The “Hepatotoxicity (choleostasis)” value in [6] came to 0. Further, the “Hepatotoxicity (severe hepatitis)” value in [7] (Liver) is 0. The “Hepatotoxicity (chronic liver disease)” value in [8] is 0. In addition, in data set [9], the “Hepatotoxicity (cirrhosis)” value came out at 0. Moreover, the “Hepatotoxicity (granulomatous hepatitis)” value in [10] is on record as 0. In addition, the “Hepatotoxicity (association with vascular disease)” value in [11] is reported as 0. Also, in [12], the “Hepatotoxicity (steatosis)” value stood at 0. Besides, the “Hepatotoxicity (malignant tumour)” value in data set [13] is recorded as 0. In addition, the “Hepatotoxicity (benign tumour)” value in data set [14] is listed as 0.

For `O=C(O)Cc1ccccc1Oc1ccc(Cl)cc1Cl` [FENCLOFENAC], the “Hepatotoxicity (moderate)” value in [1] was 1%; in data set [3], 1. The “Hepatotoxicity (acute)” value was determined as 0% in [2] and 0 in data set [4]. The “Hepatotoxicity (cytolytic)” value in data set [5] was 0. Also, in [6], the “Hepatotoxicity (choleostasis)” value amounted to 0. Further, the “Hepatotoxicity (severe hepatitis)” value in data set [7] worked out at 0. In addition, the “Hepatotoxicity (chronic liver disease)” value in [8] is 0. Further, the “Hepatotoxicity (cirrhosis)” value in data set [9] was 0. In data set [10], the “Hepatotoxicity (granulomatous hepatitis)” value was determined as 0. For the same molecule, the “Hepatotoxicity (association with vascular disease)” value in data set [11] is reported as 0. Also, the “Hepatotoxicity (steatosis)” value in data set [12] is recorded as 0. Besides, the “Hepatotoxicity (malignant tumour)” value in [13] is 0. The “Hepatotoxicity (benign tumour)” value in [14] is 0.

For `CC(C)(C)NC(=O)[C@H]1CC[C@H]2[C@@H]3CC[C@H]4NC(=O)C=C[C@]4(C)[C@H]3CC[C@]12C` [FINASTERIDE], the “Hepatotoxicity (moderate)” value is listed as 9% in [1] and 1 in data set [3]. Further, the “Hepatotoxicity (acute)” value is listed as 0% in [2] and 0 in data set [4]. For the same molecule, the “Hepatotoxicity (cytolytic)” value in [5] is recorded as 0. For the same molecule, the “Hepatotoxicity (choleostasis)” value in [6] is reported as 0. In addition, the “Hepatotoxicity (severe hepatitis)” value in data set [7] amounted to 0. For the same molecule, the “Hepatotoxicity (chronic liver disease)” value in [8] was found to be 0. For the same molecule, in [9], the “Hepatotoxicity (cirrhosis)” value is 0. Besides, the “Hepatotoxicity (granulomatous hepatitis)” value in [10] is 0. Moreover, the “Hepatotoxicity (association with vascular disease)” value in data set [11] is listed as 0. Moreover, the “Hepatotoxicity (steatosis)” value in data set [12] was 0. Further, in [13], the “Hepatotoxicity (malignant tumour)” value was found to be 0. For the same molecule, in data set [14], the “Hepatotoxicity (benign tumour)” value came out at 0.

Regarding `CN1CCN(c2c(F)cc3c(=O)c(C(=O)O)cn(CCF)c3c2F)CC1` [FLEROXACIN], the “Hepatotoxicity (moderate)” value in data set [1] is 8.3%; in data set [3], 13. Further, the “Hepatotoxicity (acute)” value in data set [2] worked out at 0%; in [4], 0. The “Hepatotoxicity (cytolytic)” value in data set [5] is reported as 0. In addition, the “Hepatotoxicity (choleostasis)” value in [6] turned out to be 0. The “Hepatotoxicity (severe hepatitis)” value in [7] was 0. Moreover, in data set [8], the “Hepatotoxicity (chronic liver disease)” value came out at 0. Also, in [9], the “Hepatotoxicity (cirrhosis)” value was 0. The “Hepatotoxicity (granulomatous hepatitis)” value in data set [10] came to 0. In addition, the “Hepatotoxicity (association with vascular disease)” value in [11] is reported as 0. In addition, the “Hepatotoxicity (steatosis)” value in [12] came to 0. Also, the “Hepatotoxicity (malignant tumour)” value in [13] was 0. The “Hepatotoxicity (benign tumour)” value in data set [14] amounted to 0.

In the case of `CC(C)(CNC(N)=O)NCC(O)COC(=O)c1ccccc1F` (stereo not drawn) [FLESTOLOL], the “Hepatotoxicity (moderate)” value in [1] is on record as 6.7%; in [3] it was 2. The figures for the “Hepatotoxicity (acute)” value in data set [2] and in data set [4] were 0% and 0, respectively. Moreover, the “Hepatotoxicity (cytolytic)” value in [5] was determined as 0. Further, the “Hepatotoxicity (choleostasis)” value in data set [6] is 0. Also, the “Hepatotoxicity (severe hepatitis)” value in data set [7] was determined as 0. In data set [8], the “Hepatotoxicity (chronic liver disease)” value is given as 0. Moreover, the “Hepatotoxicity (cirrhosis)” value in data set [9] is reported as 0. Besides, the “Hepatotoxicity (granulomatous hepatitis)” value in data set [10] was determined as 0. Moreover, the “Hepatotoxicity (association with vascular disease)” value in data set [11] is 0. In [12], the “Hepatotoxicity (steatosis)” value was determined as 0. The “Hepatotoxicity (malignant tumour)” value in data set [13] amounted to 0. Besides, the “Hepatotoxicity (benign tumour)” value in data set [14] was 0.

Take `COC(=O)Nc1nc2cc(C(=O)c3ccc(F)cc3)ccc2[nH]1` [FLUBENDAZOLE]: the “Hepatotoxicity (moderate)” value in data set [1] is given as 6%; in data set [3] it was 1. Also, the “Hepatotoxicity (acute)” value is given as 0% in [2] and 1 in [4]. The “Hepatotoxicity (cytolytic)” value in data set [5] is on record as 1. Further, in data set [6], the “Hepatotoxicity (choleostasis)” value amounted to 0. Moreover, the “Hepatotoxicity (severe hepatitis)” value in data set [7] worked out at 0. Also, the “Hepatotoxicity (chronic liver disease)” value in data set [8] turned out to be 0. The “Hepatotoxicity (cirrhosis)” value in data set [9] stood at 0. Besides, in data set [10], the “Hepatotoxicity (granulomatous hepatitis)” value stood at 0. In [11], the “Hepatotoxicity (association with vascular disease)” value came out at 0. In [12], the “Hepatotoxicity (steatosis)” value amounted to 0. Besides, in data set [13], the “Hepatotoxicity (malignant tumour)” value came to 0. In addition, the “Hepatotoxicity (benign tumour)” value in data set [14] is 0.
